Source: patent US12577245B2, “Sulfonyl benzamide derivatives as Bcl-2 inhibitors” (ASCENTAGE PHARMA (SUZHOU) CO., LTD., priority 2021, dated 2026)

Experiments:
[1] = test system: MV-4-11 cells; assay: CCK-8 cell viability assay in MV-4-11 cells; type: cell-based; conditions: 10% FBS, 3 days
Summary of the method: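 IC50 values come from vehicle-normalized CCK-8 absorbance at 450 nm, read 1–4 h after reagent addition. Before that, MV-4-11 cells seeded at 20000 per well were cultured 3 days at 37 °C with a compound dilution series.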

[2] = test system: RS4; 11Bcl-2-G101V cells; assay: CellTiter-Glo (CTG) cell viability assay in RS4;11-Bcl-2-G101V cells; type: cell-based; conditions: 10% FBS, 3 days
Summary of the method: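 Luminescent ATP read-out (CellTiter-Glo) after 3-day compound treatment at 37 °C gave viability relative to vehicle, from which IC50 was fitted. Mutant Bcl-2 RS4;11 cells were seeded at 10000 per well and rested 4 h before dosing.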

[3] = test system: RS4; 11Bcl-2-V156D cells; assay: CellTiter-Glo (CTG) cell viability assay in RS4;11-BCL2-V156D cells; type: cell-based; conditions: 10% FBS, 3 days
Experimental: (§1) RS4; 11Bcl-2-G101V, RS4; 11Bcl-2-D103E, RS4; 11Bcl-2-V156D and RS4; 11Bcl-2-G101V-D103E cells were obtained from Cobioer Biosciences. Cells were maintained in the RPMI-1640 medium with 10% FBS, 1% P/S and puromycin (1 μg/mL) at 37° C. and an atmosphere of 5% CO2.
(§2) • The effect of representative Compounds of the Disclosure on cell viability was determined using CellTiter-Glo® (CTG) luminescent cell viability assay (Promega, USA) according to the manufacturer's instructions. 95 μL of cell suspension (10000 cells/well) in culture medium were seeded into 96-well plates and cultured 4 hours. Each tested compound was serially diluted in blank culture medium, and 5 μL of the compound dilution was added to the corresponding well of the cell plate. After the addition of the tested compound, the cells were incubated at 37° C. in an atmosphere of 5% CO2 for 3 days. At the end of 3 days, 30 μL of CTG solution was added to each well of the plate and mix contents for 2 minutes on an orbital shaker. Allow the plate to incubate at room temperature for 15 mins to stabilize signal and record RLU on the Biotek plate reader. The readings were normalized to the vehicle cells, and the IC50 was calculated using GraphPad Prism 8 software.

[4] = test system: RS4; 11Bcl-2-D103E cells; assay: CellTiter-Glo (CTG) cell viability assay in RS4;11-BCL2-D103E cells; type: cell-based; conditions: 10% FBS, 3 days
Experimental: as §1, §2

[5] = biological target: Bcl-2 WT (Homo sapiens, UniProt P10415); assay: Bcl-2 WT inhibition, fluorescence polarization (Flu-BIM tracer) binding assay; conditions: FP; 20 nM Bcl2, 5 nM Flu-BIM, 1 h incubation; read-out: Bcl-2 w.t. (FP)
Sequence of Bcl-2 WT (P10415 whole entry): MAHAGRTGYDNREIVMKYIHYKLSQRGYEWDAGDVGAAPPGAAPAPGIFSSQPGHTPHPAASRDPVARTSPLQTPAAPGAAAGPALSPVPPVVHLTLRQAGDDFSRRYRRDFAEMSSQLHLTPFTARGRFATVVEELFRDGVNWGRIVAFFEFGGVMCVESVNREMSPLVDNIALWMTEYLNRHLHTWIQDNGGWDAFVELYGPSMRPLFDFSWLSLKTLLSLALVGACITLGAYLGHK

IC50 ([3]; 72 h) [nM] | IC50 ([4]; 72 h) [nM] | IC50 [1] [nM] | IC50 [2] [nM] | IC50 [3] [nM] | IC50 [4] [nM] | SMILES | IC50 ([1]; Homo sapiens, MV4-11, 72 h) [nM] | IC50 ([2]; 72 h) [nM] | IC50 [5] [nM]
671 | 1510 | – | – | – | – | CC1(C)CCC(CN2CCN(c3ccc(C(=O)NS(=O)(=O)c4ccc(NCC5CCOCC5)c([N+](=O)[O-])c4)c(Oc4cnc5[nH]ccc5c4)c3)CC2)=C(c2ccc(Cl)cc2)C1 [ABT-199, Venetoclax, reference compound] | 38 | 2690 | –
– | – | 34 | 2430 | 324 | 516 | O=C(NS(=O)(=O)c1ccc(NC[C@H]2COCCO2)c([N+](=O)[O-])c1)c1ccc(N2CCN(CC3=C(c4ccc(Cl)cc4)CC4(CCC4)CC3)CC2)cc1Oc1cnc2[nH]ccc2c1 [APG-2575] | – | – | –
– | – | – | – | – | – | CC1(C)CCC(CN2CCN(c3ccc(C(=O)NS(=O)(=O)c4ccc(NC[C@H]5CC[C@](C)(O)CC5)c([N+](=O)[O-])c4)c(Oc4cnc5[nH]ccc5c4)c3)CC2)=C(c2cc(-c3ccc4c(c3)CCC4(C)O)cs2)C1 (stereo partly drawn) [Example 79, 2-((1H-pyrrolo[2,3-b]pyridin-5-yl)oxy)-4-(4-((2-(4-(1-hydroxy-1-methyl-2,3-dihydro-1H-inden-5-yl)thiophen-2-yl)-4,4-dimethylcyclohex-1-en-1-yl)methyl)piperazin-1-yl)-N-((4-((((1r,4r)-4-hydroxy-4-methylcyclohexyl)methyl)amino)-3-nitrophenyl)sulfonyl)benzamide] | 11 | 170 | 15.8
– | – | – | – | – | – | CC(=O)NC(C)(C)c1cc(F)c(-c2csc(C3=C(CN4CCN(c5ccc(C(=O)NS(=O)(=O)c6ccc(NC[C@H]7CC[C@](C)(O)CC7)c([N+](=O)[O-])c6)c(Oc6cnc7[nH]ccc7c6)c5)CC4)CCC(C)(C)C3)c2)c(F)c1 [Example 80, 2-((1H-pyrrolo[2,3-b]pyridin-5-yl)oxy)-4-(4-((2-(4-(4-(2-acetamidopropan-2-yl)-2,6-difluorophenyl)thiophen-2-yl)-4,4-dimethylcyclohex-1-en-1-yl)methyl)piperazin-1-yl)-N-((4-((((1r,4r)-4-hydroxy-4-methylcyclohexyl)methyl)amino)-3-nitrophenyl)sulfonyl)benzamide] | 111 | 420 | 15.6
– | – | – | – | – | – | Cc1sc(C2=C(CN3CCN(c4ccc(C(=O)NS(=O)(=O)c5ccc(NC[C@H]6CC[C@](C)(O)CC6)c([N+](=O)[O-])c5)c(Oc5cnc6[nH]ccc6c5)c4)CC3)CCC(C)(C)C2)cc1-c1c(F)cc(C(C)(C)O)cc1F [Example 81, 2-((1H-pyrrolo[2,3-b]pyridin-5-yl)oxy)-4-(4-((2-(4-(2,6-difluoro-4-(2-hydroxypropan-2-yl)phenyl)-5-methylthiophen-2-yl)-4,4-dimethylcyclohex-1-en-1-yl)methyl)piperazin-1-yl)-N-((4-((((1r,4r)-4-hydroxy-4-methylcyclohexyl)methyl)amino)-3-nitrophenyl)sulfonyl)benzamide] | 270 | 1710 | 34.6
– | – | – | – | – | – | CC1(C)CCC(CN2CCN(c3ccc(C(=O)NS(=O)(=O)c4ccc(NC[C@H]5CC[C@](C)(O)CC5)c([N+](=O)[O-])c4)c(Oc4cnc5[nH]ccc5c4)c3)CC2)=C(c2cc(-c3c(F)cc(C(C)(C)C(=O)O)cc3F)cs2)C1 [Example 82, 2-(4-(5-(2-((4-(3-((1H-pyrrolo[2,3-b]pyridin-5-yl)oxy)-4-(((4-((((1r,4r)-4-hydroxy-4-methylcyclohexyl)methyl)amino)-3-nitrophenyl)sulfonyl)carbamoyl)phenyl)piperazin-1-yl)methyl)-5,5-dimethylcyclohex-1-en-1-yl)thiophen-3-yl)-3,5-difluorophenyl)-2-methylpropanoic acid] | 114 | 1270 | 18.1
8 | 48 | – | – | – | – | C[C@@H](O)c1cc(F)c(-c2csc(C3=C(CN4CCN(c5ccc(C(=O)NS(=O)(=O)c6ccc(NC[C@H]7CC[C@](C)(O)CC7)c([N+](=O)[O-])c6)c(Oc6cnc7[nH]ccc7c6)c5)CC4)CCC(C)(C)C3)c2)c(F)c1 [Example 83, 2-((1H-pyrrolo[2,3-b]pyridin-5-yl)oxy)-4-(4-((2-(4-(2,6-difluoro-4-((R)-1-hydroxyethyl)phenyl)thiophen-2-yl)-4,4-dimethylcyclohex-1-en-1-yl)methyl)piperazin-1-yl)-N-((4-((((1r,4r)-4-hydroxy-4-methylcyclohexyl)methyl)amino)-3-nitrophenyl)sulfonyl)benzamide] | 2 | 20 | –
8 | 98 | – | – | – | – | C[C@H](O)c1cc(F)c(-c2csc(C3=C(CN4CCN(c5ccc(C(=O)NS(=O)(=O)c6ccc(NC[C@H]7CC[C@](C)(O)CC7)c([N+](=O)[O-])c6)c(Oc6cnc7[nH]ccc7c6)c5)CC4)CCC(C)(C)C3)c2)c(F)c1 [Example 84, 2-((1H-pyrrolo[2,3-b]pyridin-5-yl)oxy)-4-(4-((2-(4-(2,6-difluoro-4-((S)-1-hydroxyethyl)phenyl)thiophen-2-yl)-4,4-dimethylcyclohex-1-en-1-yl)methyl)piperazin-1-yl)-N-((4-((((1r,4r)-4-hydroxy-4-methylcyclohexyl)methyl)amino)-3-nitrophenyl)sulfonyl)benzamide] | 7 | 70 | –

SMILES | IC50 ([3]; 72 h) [nM] | IC50 ([4]; 72 h) [nM] | IC50 [1] [nM] | IC50 [2] [nM] | IC50 [3] [nM] | IC50 [4] [nM] | IC50 ([1]; Homo sapiens, MV4-11, 72 h) [nM] | IC50 ([2]; 72 h) [nM] | IC50 [5] [nM]
CC1(C)CCC(CN2CCN(c3ccc(C(=O)NS(=O)(=O)c4ccc(NC[C@H]5CC[C@](C)(O)CC5)c([N+](=O)[O-])c4)c(Oc4cnc5[nH]ccc5c4)c3)CC2)=C(c2cc(-c3c(F)cc(C(C)(C)O)cc3F)cs2)C1 [Example 63, 2-((1H-pyrrolo[2,3-b]pyridin-5-yl)oxy)-4-(4-((2-(4-(2,6-difluoro-4-(2-hydroxypropan-2-yl)phenyl)thiophen-2-yl)-4,4-dimethylcyclohex-1-en-1-yl)methyl)piperazin-1-yl)-N-((4-((((1r,4r)-4-hydroxy-4-methylcyclohexyl)methyl)amino)-3-nitrophenyl)sulfonyl)benzamide] | 19 | 183 | – | – | – | – | 9 | 14 | 16.3
